In patent publication US4338451A, “5-Hydroxymethyl oxazolidinones” (Delalande S.A., priority 1977, dated 1982):

Experiments:
[1] = test system: generalized trembling caused by an interperitoneal injection (200 mg/kg) of dl-5-hydroxytryptophane; experiment: Test A: potentiation in mice of generalized trembling caused by dl-5-hydroxytryptophane; assay type: in vivo; settings: Mus musculus, po, dl-5-hydroxytryptophane 200 mg/kg intraperitoneal, read-out: Test A ED 50
Description: Potentiation in mice of generalized trembling caused by an interperitoneal injection (200 mg/kg) of dl-5-hydroxytryptophane, following the protocol described by C. GOURET and G. RAYNAUD in J. Pharmacol. (Paris), (1974) 5, 231.

[2] = test system: ptosis observed one hour after an intravenous injection (2 mg/kg) of reserpine; experiment: Test B: antagonism of the ptosis caused by reserpine in mice; assay type: in vivo; settings: Mus musculus, po, 1 h, p.o., reserpine 2 mg/kg intravenous, read-out: Test B ED 50
Description: Antagonism with respect to the ptosis observed one hour after an intravenous injection (2 mg/kg) of reserpine given to mice, following the protocol described by C.

Acute toxicity in mice = settings: mouse, in vivo, po
[3] = test system: pontogeniculo-occipital points (P.G.O.) caused by an intravenous injection (0.5 mg/kg) of reserpine; experiment: Test C: reduction in the density of pontogeniculo-occipital points (P.G.O.) caused by reserpine in cats; assay type: in vivo; settings: Felis catus, ip, reserpine 0.5 mg/kg intravenous, read-out: Test C ED 50
Description: Reduction in the density of pontogeniculo-occipital points (P.G.O.) caused by an intravenous injection (0.5 mg/kg) of reserpine given to cats, following the protocol described by A. COSTON and C. GOURET in J. Pharmacol. (Paris) (1976), 7, 409.

Structure (SMILES) | ED50 [1] [mg/kg] | ED50 [2] [mg/kg] | ED50 [3] [mg/kg] | further results
CC(C)(C)CCOc1ccc(N2CC(CO)OC2=O)cc1 (centres unmarked) [771 246] | 17 | 23 | – | –
O=C1OC(CO)CN1c1ccc(OCc2ccc(F)c([N+](=O)[O-])c2)cc1 (centres unmarked) [770 955] | 13 | 7 | – | mortality (Acute toxicity in mice; 2000 mg/kg): 17%
O=C1OC(CO)CN1c1ccc(OCc2cc(Cl)cc([N+](=O)[O-])c2)cc1 (centres unmarked) [771 199] | 1.1 | 0.8 | – | –
O=C1OC(CO)CN1c1ccc(OCC2OCCS2)cc1 (centres unmarked) [780 112] | 5 | 5.2 | – | –
O=C1OC(CO)CN1c1ccc(OCC2SCCS2)cc1 (centres unmarked) [780 080, 3-para[(1,3-dithiolan-2-yl)-methoxy]phenyl 5-hydroxymethyl 2-oxazolidinone] | 50 | 50 | – | –
CCCC(=O)c1ccc(N2CC(CO)OC2=O)cc1 (centres unmarked) [770 423] | 35 | 25 | 5 | –
C=CCCCOc1ccc(N2CC(CO)OC2=O)cc1 (centres unmarked) [770 196] | 20 | 15 | 16 | –
O=C1OC(CO)CN1c1ccc(OCc2cnccn2)cc1 (centres unmarked) [770 845] | 6.25 | 12.5 | – | –
O=C1OC(CO)CN1c1ccc(OCC2CCOCC2)cc1 (centres unmarked) [771 301] | 1.9 | 3 | – | LD50 (Acute toxicity in mice): > 2000 mg/kg
COC(=O)Nc1ccc(COc2ccc(N3CC(CO)OC3=O)cc2)cc1 (centres unmarked) [780 182] | 40 | 25 | – | –
O=C1OC(CO)CN1c1ccc(OCCC2CCCC2)cc1 (centres unmarked) [771 245] | 1.5 | 2 | – | LD50 (Acute toxicity in mice): > 2000 mg/kg
CC(=O)CSc1ccc(N2CC(CO)OC2=O)cc1 (centres unmarked) [770 501, 3-(p-acetylmethylthiophenyl) 5-hydroxymethyl 2-oxazolidinone] | 22 | 25 | – | –
O=C1OC(CO)CN1c1ccc(OCc2ccc(Cl)cc2Cl)cc1 (centres unmarked) [770 354] | 25 | 30 | 30 | –
O=C1OC(CO)CN1c1ccc(OCC2OCCO2)cc1 (centres unmarked) [770 962] | 26 | 50 | – | –
O=C1OC(CO)CN1c1ccc(COc2cccc([N+](=O)[O-])c2)cc1 (centres unmarked) [771 263, 3-para (metanitrophenoxymethyl) phenyl 5-hydroxymethyl 2-oxazolidinone] | 4 | 3.1 | – | –
N#Cc1cccc(COc2ccc(N3CC(CO)OC3=O)cc2)c1 (centres unmarked) [770 222] | 2.8 | 1.2 | 5.2 | mortality (Acute toxicity in mice; 1000 mg/kg): 0%
CC(=O)COc1ccc(N2CC(CO)OC2=O)cc1 (centres unmarked) [760 652, 3-(p-acetylmethyloxy) 5-hydroxymethyl 2-oxazolidinone] | – | – | – | mortality (Acute toxicity in mice; mice, dose administered 1000 mg/kg/p.o.): 0%
O=C1OC(CO)CN1c1ccc(OCC2CCCOC2)cc1 (centres unmarked) [780 034] | 4.4 | 6.2 | – | –
O=C1OC(CO)CN1c1ccc(OCc2cc(Cl)cc(Cl)c2)cc1 (centres unmarked) [770 416] | 6.2 | 10 | 3 | –
Nc1cccc(COc2ccc(N3CC(CO)OC3=O)cc2)c1 (centres unmarked) [771 240] | 35 | 50 | – | –
CCC(=O)Nc1ccc(COc2ccc(N3CC(CO)OC3=O)cc2)cc1 (centres unmarked) [780 443] | 3.7 | 12.5 | – | –
O=C1OC(CO)CN1c1ccc(OCc2cccnc2)cc1 (centres unmarked) [770 221] | 11.8 | 3.12 | 15 | –

Structure (SMILES) | ED50 [1] [mg/kg] | ED50 [2] [mg/kg] | ED50 [3] [mg/kg] | further results
O=C1OC(CO)CN1c1ccc(OCC2CCC2)cc1 (centres unmarked) [770 788] | 6.25 | 12.5 | – | –
O=C1OC(CO)CN1c1ccc(OCCN2CCOCC2)cc1 (centres unmarked) [750 601] | 70 | 8 | 31 | –
O=C1OC(CO)CN1c1ccc(OCc2ccc(Cl)c([N+](=O)[O-])c2)cc1 (centres unmarked) [770 672] | 25 | 19 | – | –
COCOc1ccc(N2CC(CO)OC2=O)cc1 (centres unmarked) [760 904] | 50 | 50 | 8.5 | –
O=C1OC(CO)CN1c1ccc(OCC2SCCCS2)cc1 (centres unmarked) [780 077] | 25 | 44 | – | –
N#Cc1cc(COc2ccc(N3CC(CO)OC3=O)cc2)cc([N+](=O)[O-])c1 (centres unmarked) [771 125] | 3.12 | 1.56 | – | –
O=C1OC(CO)CN1c1ccc(OCc2cccc(I)c2)cc1 (centres unmarked) [771 321] | 25 | 20 | – | –
CCC(CC)COc1ccc(N2CC(CO)OC2=O)cc1 (centres unmarked) [771 197] | 25 | 16 | – | –
O=C1OC(CO)CN1c1ccc(OCC2=CCCC2)cc1 (centres unmarked) [770 466] | 9.6 | 6.2 | 9 | –
N#CCCOc1ccc(N2CC(CO)OC2=O)cc1 (centres unmarked) [770 131, 3-(2-p-cyanoethoxyphenyl) 5-hydroxymethyl 2-oxazolidinone] | 2.5 | 3 | 5.5 | mortality (Acute toxicity in mice; 1000 mg/kg): 0%
O=C1OC(CO)CN1c1ccc(OCc2cccs2)cc1 (centres unmarked) [770 673] | 16 | 35 | 8 | –
CC(C)(C)COc1ccc(N2CC(CO)OC2=O)cc1 (centres unmarked) [771 249] | 22.5 | 50 | – | –
O=C1OC(CO)CN1c1ccc(OCc2ccoc2)cc1 (centres unmarked) [770 979] | 14 | 35 | – | –
CC(C)CCOc1ccc(N2CC(CO)OC2=O)cc1 (centres unmarked) [771 082] | 1.3 | 0.7 | – | LD50 (Acute toxicity in mice): > 2000 mg/kg
CC1(COc2ccc(N3CC(CO)OC3=O)cc2)CCCC1 (centres unmarked) [780 076] | 2.3 | 7 | – | –
O=C1OC(CO)CN1c1ccc(C(F)(F)F)cc1 (centres unmarked) [770 152, 5-hydroxymethyl 3-p-trifluoromethylphenyl 2-oxazolidinone] | 20 | 25 | 15 | –
N#CCOc1cccc(N2CC(CO)OC2=O)c1 (centres unmarked) [770 231, 5-hydroxymethyl 3-m-cyanomethyloxyphenyl 2-oxazolidinone] | 40 | 50 | 14 | –
CN(C)c1cccc(N2CC(CO)OC2=O)c1 (centres unmarked) [770 155] | 50 | 22.5 | 35 | –
CCCCCSc1ccc(N2CC(CO)OC2=O)cc1 (centres unmarked) [770 180] | 35 | 45 | 45 | –
CCC(=O)c1ccc(N2CC(CO)OC2=O)cc1 (centres unmarked) [770 365] | 29 | 25 | – | –
Cc1cccc(N2CC(CO)OC2=O)c1 (centres unmarked) [TOLOXATONE, reference compound] | 60 | 50 | 28 | –
O=C1OC(CO)CN1c1ccc(OCc2ccc([N+](=O)[O-])c(Cl)c2)cc1 (centres unmarked) [770 790] | 50 | 25 | – | –

Structure (SMILES) | ED50 [1] [mg/kg] | ED50 [2] [mg/kg] | ED50 [3] [mg/kg] | further results
O=C1OC(CO)CN1c1ccc(OCc2ccccn2)cc1 (centres unmarked) [770 298] | 55 | 12.5 | – | –
O=C1OC(CO)CN1c1ccc(OCCC2CCCCC2)cc1 (centres unmarked) [770 949] | 10 | 16 | – | –
CCCCCNc1ccc(N2CC(CO)OC2=O)cc1 (centres unmarked) [770 328, 3-p-n pentylaminophenyl 5-hydroxymethyl 2-oxazolidinone] | 25 | 35 | – | –
N#Cc1cc(COc2ccc(N3CC(CO)OC3=O)cc2)ccc1F (centres unmarked) [770 789] | 3 | 2 | – | –
CC(=O)Nc1ccc(COc2ccc(N3CC(CO)OC3=O)cc2)cc1 (centres unmarked) [770 569] | 5 | 2.5 | 6 | –
O=C1OC(CO)CN1c1ccc(CCc2cccc(Cl)c2)cc1 (centres unmarked) [771 181] | 6.25 | 6.25 | – | –
N#Cc1ccccc1COc1ccc(N2CC(CO)OC2=O)cc1 (centres unmarked) [770 318] | 25 | 16 | – | –
O=C1OC(CO)CN1c1ccc(OCC2CC2)cc1 (centres unmarked) [770 388] | 9 | 12.5 | 4.5 | –
O=C1OC(CO)CN1c1ccc(OCC2=CCC=CC2)cc1 (centres unmarked) [770 984] | 10 | 25 | – | –
CC(COc1ccc(N2CC(CO)OC2=O)cc1)=NO (centres unmarked) [770 126, oxime of 3-(p-acetylmethyloxyphenyl) 5-hydroxymethyl 2-oxazolidinone] | 8 | 11 | 16.5 | –
O=C1OC(CO)CN1c1ccc(COc2ccccc2)cc1 (centres unmarked) [770 696] | 15 | 20 | – | –
O=C1OC(CO)CN1c1ccc(OCC2CCCCCC2)cc1 (centres unmarked) [780 030] | 3 | 5.3 | – | –
O=C1OC(CO)CN1c1ccc(OCC2CCCCO2)cc1 (centres unmarked) [770 900] | 50 | 25 | – | –
O=C1OC(CO)CN1c1ccc(OCc2ccsc2)cc1 (centres unmarked) [771 067] | 7.5 | 12.5 | – | –
O=C1OC(CO)CN1c1ccc(OCc2ccc(F)c(Cl)c2)cc1 (centres unmarked) [770 572] | 6.3 | 3.12 | 8.5 | –
O=C1OC(CO)CN1c1ccc(OCc2ccc(Cl)c(Cl)c2)cc1 (centres unmarked) [770 268] | 7 | 8.5 | – | –
O=C1OC(CO)CN1c1ccc(OCC2CCCC2)cc1 (centres unmarked) [770 467] | 2.8 | 1.2 | 3 | –
CC(C)C(=O)COc1ccc(N2CC(CO)OC2=O)cc1 (centres unmarked) [770 154] | 50 | 50 | 20 | –
CC(=O)COc1cccc(N2CC(CO)OC2=O)c1 (centres unmarked) [770 230] | – | 6.25 | 16 | –
O=C1OC(CO)CN1c1ccc(OCc2ccncc2)cc1 (centres unmarked) [770 299] | 20 | 12.5 | – | –
